Earlier results as cited in PMC4360375 (Journal of Medicinal Chemistry, 2015).

test system: GABA uptake, rat synaptosome; conditions: literature data set; ref 10.1016/S0968-0896(01)00148-1; cited from earlier work

O=C(O)[C@@H]1CCCN(CCOCc2ccc3ccccc3c2-c2ccccc2)C1 [An_2001/6_36, O(Cc1ccc2c(cccc2)c1-c1ccccc1)CCN1C[C@@H](CCC1)C(O)=O] and O=C(O)[C@@H]1CCCN(CCOc2ccccc2-c2ccccc2)C1 [An_2001/6_33, O(CCN1C[C@@H](CCC1)C(O)=O)c1ccccc1-c1ccccc1] are within 0.2 log units of each other in pIC50: 5.098 for the first, 5.235 for the second.

Going from O=C(O)[C@@H]1CCCN(CCO/N=C2\CCCC=C2c2ccccc2)C1 [An_2001/6_25, O(\N=C\1/CCCC=C/1c1ccccc1)CCN1C[C@@H](CCC1)C(O)=O] to O=C(O)[C@@H]1CCCN(CCO/N=C(\c2ccccc2)C2CC2)C1 [An_2001/6_14, O(\N=C(\C1CC1)/c1ccccc1)CCN1C[C@@H](CCC1)C(O)=O], the pIC50 falls from 6.456 to 5.907.

Compared with O=C(O)[C@@H]1CCCN(CCO/N=C(/Cc2ccc(F)cc2)c2ccc(F)cc2)C1 [An_2001/6_17, Fc1ccc(cc1)C\C(=N\OCCN1C[C@@H](CCC1)C(O)=O)\c1ccc(F)cc1], CC(C)C/C(=N/OCCN1CCC[C@@H](C(=O)O)C1)c1ccccc1 [An_2001/6_15, O(\N=C(\CC(C)C)/c1ccccc1)CCN1C[C@@H](CCC1)C(O)=O] is higher in pIC50: 6.036 for the first, 6.553 for the second.

For O=C(O)[C@@H]1CCCN(CCO/N=C/C2(c3ccccc3)CCCC2)C1 [An_2001/6_23, O(\N=C\C1(CCCC1)c1ccccc1)CCN1C[C@@H](CCC1)C(O)=O], the pIC50 is given as 6.337.

same assay, conditions: literature data set; ref 10.1021/jm00064a005; cited from earlier work

First: O=C(O)[C@@H]1CCCN(CCC=C2c3ccccc3-c3ccccc32)C1 [compound 7, OC(=O)[C@@H]1CCCN(C1)CC\C=C/1\c2c(-c3c\1cccc3)cccc2]
Second: Cc1ccccc1C(=CCCN1CCC[C@@H](C(=O)O)C1)c1ccccc1C [An_1993_34, OC(=O)[C@@H]1CCCN(C1)CC\C=C(\c1ccccc1C)/c1ccccc1C]
The pIC50 of the first is lower: 5.717 for the first, 7.097 for the second.

First: O=C(O)[C@@H]1CCCN(CCC=C(c2ccccc2)c2ccccc2)C1 [(R)-SK&F-89976-A, OC(=O)[C@@H]1CCCN(C1)CC\C=C(\c1ccccc1)/c1ccccc1]
Second: O=C(O)C1=CCCN(CC/C=C(\c2ccccc2)c2cccs2)C1 [An_1993_36, s1cccc1/C(=C/CCN1CC(=CCC1)C(O)=O)/c1ccccc1]
The pIC50 of the first is higher: 6.959 for the first, 6.577 for the second.

First: O=C(O)C1=CCCN(CCOC(c2ccc(C(F)(F)F)cc2)c2ccc(C(F)(F)F)cc2)C1 [Cl-966, FC(F)(F)c1ccc(cc1)C(OCCN1CC(=CCC1)C(O)=O)c1ccc(cc1)C(F)(F)F]
Second: Cc1ccsc1/C(=C/CCN1CCC=C(C(=O)O)C1)c1ccc(Cl)cc1 [An_1993_48, Clc1ccc(cc1)/C(=C\CCN1CC(=CCC1)C(O)=O)/c1sccc1C]
The pIC50 of the first is higher: 6.357 for the first, 6.071 for the second.

Cc1ccsc1/C(=C/CCN1CCC[C@@H](C(=O)O)C1)c1c(C)cccc1C [An_1993_46, s1ccc(C)c1/C(=C/CCN1C[C@@H](CCC1)C(O)=O)/c1c(cccc1C)C] and Cc1ccsc1C(=CCCN1CCC[C@H](C(=O)O)C1)c1sccc1C [(S)-Tiagabine, s1ccc(C)c1\C(=C\CCN1C[C@H](CCC1)C(O)=O)\c1sccc1C] are within 0.2 log units of each other in pIC50: 6.602 for the first, 6.658 for the second.

same assay, conditions: literature data set; ref 10.1021/jm980492e; cited from earlier work

First: O=C(O)[C@@H]1CCCN(CCCCOCCN(c2ccccc2)c2ccccc2)C1 [An_1999/4_(R)-18, O(CCCCN1C[C@@H](CCC1)C(O)=O)CCN(c1ccccc1)c1ccccc1]
Second: O=C(O)[C@@H]1CCCN(CCCN(c2ccccc2)c2ccccc2)C1 [An_1999/4_(R)-10, OC(=O)[C@@H]1CCCN(C1)CCCN(c1ccccc1)c1ccccc1]
The pIC50 of the first is higher: 6.523 for the first, 5.046 for the second.

First: Cc1ccccc1C(=CCOCCCN1CCC[C@@H](C(=O)O)C1)c1ccccc1C [An_1999/4_(R)-24, O(CCCN1C[C@@H](CCC1)C(O)=O)C\C=C(\c1ccccc1C)/c1ccccc1C]
Second: Cc1ccccc1C(CCOCCN1CCC[C@@H](C(=O)O)C1)c1ccccc1C [An_1999/4_(R)-32, O(CCC(c1ccccc1C)c1ccccc1C)CCN1C[C@@H](CCC1)C(O)=O]
The pIC50 of the first is higher: 7.097 for the first, 6.444 for the second.

First: O=C(O)[C@@H]1CCCN(CCCCC=C(c2ccccc2)c2ccccc2)C1 [An_1999/4_(R)-27, OC(=O)[C@@H]1CCCN(C1)CCCC\C=C(\c1ccccc1)/c1ccccc1]
Second: O=C(O)[C@@H]1CCCN(CCCCCCC=C(c2ccccc2)c2ccccc2)C1 [An_1999/4_(R)-28, OC(=O)[C@@H]1CCCN(C1)CCCCCC\C=C(\c1ccccc1)/c1ccccc1]
The pIC50 of the first is lower: 5.646 for the first, 5.866 for the second.

Going from O=C(O)[C@@H]1CCCN(CCON=C(c2ccccc2)c2ccccc2)C1 [An_1999/4_(R)-7, O(\N=C(\c1ccccc1)/c1ccccc1)CCN1C[C@@H](CCC1)C(O)=O] to O=C(O)[C@@H]1CCCN(CCOCCC(c2ccccc2)c2ccccc2)C1 [compound 8, O(CCC(c1ccccc1)c1ccccc1)CCN1C[C@@H](CCC1)C(O)=O], the pIC50 rises from 6.863 to 7.26.

same assay, conditions: literature data set; ref 10.1021/jm981027k; cited from earlier work

First: O=C(O)[C@@H]1CCCN(CCOC=C(c2cc(F)ccc2F)c2cc(F)ccc2F)C1 [An_1999/3_107, Fc1ccc(F)cc1\C(=C\OCCN1C[C@@H](CCC1)C(O)=O)\c1cc(F)ccc1F]
Second: O=C(O)[C@@H]1CCCN(CCON=C(c2ccc(F)cc2Cl)c2ccc(F)cc2Cl)C1 [An_1999/3_94, Clc1cc(F)ccc1\C(=N\OCCN1C[C@@H](CCC1)C(O)=O)\c1ccc(F)cc1Cl]
The pIC50 of the first is lower: 6.745 for the first, 7 for the second.

First: Cc1ccccc1/C(=C\OCCN1CCC[C@@H](C(=O)O)C1)c1ccccc1Cl [An_1999/3_101, Clc1ccccc1/C(=C/OCCN1C[C@@H](CCC1)C(O)=O)/c1ccccc1C]
Second: O=C(O)[C@@H]1CCCN(CCO/C=C(/c2ccccc2)c2ccccc2Cl)C1 [An_1999/3_108, Clc1ccccc1\C(=C/OCCN1C[C@@H](CCC1)C(O)=O)\c1ccccc1]
The pIC50 of the first is higher: 8 for the first, 7.301 for the second.

Cc1ccccc1/C(=N/OCCN1CCC[C@@H](C(=O)O)C1)c1sccc1C [An_1999/3_39, s1ccc(C)c1/C(=N\OCCN1C[C@@H](CCC1)C(O)=O)/c1ccccc1C] and Cc1ccccc1/C(=N\OCCN1CCC[C@@H](C(=O)O)C1)c1sccc1C [An_1999/3_40, s1ccc(C)c1/C(=N/OCCN1C[C@@H](CCC1)C(O)=O)/c1ccccc1C] are within 0.2 log units of each other in pIC50: 7.155 for the first, 7.046 for the second.

Going from O=C(O)C1=CCCN(CCON=C(c2ccccc2)c2ccccc2)C1 [NO-711, O(\N=C(\c1ccccc1)/c1ccccc1)CCN1CC(=CCC1)C(O)=O] to O=C(O)[C@@H]1CCCN(CCO/N=C(/c2ccccc2)c2ccccn2)C1 [compound 11, O(\N=C(\c1ccccc1)/c1ncccc1)CCN1C[C@@H](CCC1)C(O)=O], the pIC50 falls from 7.328 to 5.684.

Compared with Cc1ccsc1C(=NOCCN1CCC[C@H](C(=O)O)C1)c1sccc1C [An_1999/3_80, s1ccc(C)c1\C(=N\OCCN1C[C@H](CCC1)C(O)=O)\c1sccc1C], Cc1ccsc1C(=NOCCN1CCC[C@@H](C(=O)O)C1)c1sccc1C [An_1999/3_12, s1ccc(C)c1\C(=N\OCCN1C[C@@H](CCC1)C(O)=O)\c1sccc1C] is higher in pIC50: 7.097 for the first, 7.398 for the second.

Going from CCc1ccccc1C(=COCCN1CCC[C@@H](C(=O)O)C1)c1ccccc1CC [An_1999/3_103, O(\C=C(\c1ccccc1CC)/c1ccccc1CC)CCN1C[C@@H](CCC1)C(O)=O] to CCc1ccccc1C(=COCCN1CCC=C(C(=O)O)C1)c1ccccc1CC [An_1999/3_104, O(\C=C(\c1ccccc1CC)/c1ccccc1CC)CCN1CC(=CCC1)C(O)=O], the pIC50 falls from 7.523 to 7.301.

In the case of Cc1ccsc1/C(=N\OCCN1CCC[C@@H](C(=O)O)C1)c1cccs1 [An_1999/3_81, s1ccc(C)c1\C(=N/OCCN1C[C@@H](CCC1)C(O)=O)\c1sccc1], the pIC50 is given as 7.155.

same assay, conditions: literature data set; ref 10.1021/jm990513k; cited from earlier work

In the case of O=C(O)[C@@H]1CCCN(CCOCCN2c3ccccc3CCCc3ccccc32)C1 [An_2001/5_33, O(CCN1C[C@@H](CCC1)C(O)=O)CCN1c2c(CCCc3c1cccc3)cccc2], the pIC50 is given as 6.071.
